# According to publication PMC11187126, “Structure and dynamics of the pyroglutamylated RF-amide peptide QRFP receptor GPR103” (Nature Communications, 2024):
# No end group written: not given here.
# Molecular target: T1, GPR103 Q184^4.64A (Homo sapiens, UniProt Q96P65, Q184A)
# T1 construct: we used human full-length QRFPR-encoding plasmids; expressed in transfected cells; host or cells: HEK293 cells, pCAGGS vector
# T1 sequence (Q96P65 1-431 Q184A): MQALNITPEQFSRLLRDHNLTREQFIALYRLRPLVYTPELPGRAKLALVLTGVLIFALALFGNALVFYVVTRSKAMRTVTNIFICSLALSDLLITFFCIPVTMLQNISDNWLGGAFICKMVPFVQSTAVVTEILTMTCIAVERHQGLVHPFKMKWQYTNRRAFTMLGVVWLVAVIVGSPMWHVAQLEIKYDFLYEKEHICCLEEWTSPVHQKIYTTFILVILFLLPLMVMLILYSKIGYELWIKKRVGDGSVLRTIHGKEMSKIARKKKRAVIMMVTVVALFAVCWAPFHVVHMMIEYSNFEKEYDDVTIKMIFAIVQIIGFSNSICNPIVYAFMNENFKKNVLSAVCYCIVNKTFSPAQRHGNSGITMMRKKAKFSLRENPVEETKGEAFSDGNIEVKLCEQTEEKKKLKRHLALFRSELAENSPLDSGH
# Test: TGFα shedding assay; Exp. level WT (1:5)
# Assay type: cell-based
# Protocol: For the TGFα shedding assay and the flow cytometry analysis, we used human full-length QRFPR-encoding plasmids. Specifically, GPR103 was N-terminally modified with an HA signal sequence followed by a FLAG epitope and then a flexible linker ([…]; the FLAG epitope is underlined) and inserted into the pCAGGS vector. Plasmid encoding GPR103 mutants were generated using Quickchange Site-Directed Mutagensis kit (Agilent).
# The TGFα shedding assay was performed as described previously with minor modifications. Plasmid transfection was performed in a 6-well plate with a mixture of 500 ng (per well in a 6-well plate) AP-TGFα-encoding plasmid and 200 ng GPR103-encoding plasmid. After 1-day culture, the transfected cells were harvested by trypsinization, pelleted by centrifugation at 190 × g for 5 min, and washed once with 5 mM HEPES (pH 7.4)-containing Hank’s Balanced Salt Solution (HBSS). After centrifugation, the cells were resuspended in 8 mL of the HEPES-containing HBSS. The cell suspension was seeded in a 96-well culture plate (cell plate) at a volume of 90 μL (per well hereafter) and incubated in a 37 °C incubator with 5% CO2 for 30 min. […] After spinning the cell plates at 190 × g for 2 min, 80 μL of conditioned media was transferred to an empty 96-well plate (conditioned media (CM) plate). Then, 80 μL of AP reaction solution (10 mM p-nitrophenylphosphate (p-NPP), 120 mM Tris-HCl (pH 9.5), 40 mM NaCl, and 10 mM MgCl2) was dispensed into the cell plates and the CM plates. Absorbance at 405 nm of the plates was measured using a microplate reader (SpectraMax 340 PC384, Molecular Devices) before and after 1-h incubation at room temperature. Ligand-induced AP-TGFα release was calculated by subtracting spontaneous AP-TGFα release signal from ligand-induced AP-TGFα release signal. The AP-TGFα release signals were fitted to a four-parameter sigmoidal concentration–response curve, using the Prism 10 software (GraphPad Prism). For each replicate experiment, the pEC50 parameter (negative logarithmic values of EC50 values) of the individual GPR103 mutants were normalized to that of the wild-type GPR103 performed in parallel, and resulting ∆pEC50 values were used to denote ligand response activity of the mutants. […]
# Exp. le vel: WT (1:5 0)Exp. le vel: WT (1:5 0)Exp. le vel: WT (1:5 0)Exp. le vel: WT (1:2 0)Exp. le vel: WT (1:2 0)Exp. le vel: WT (1:1 0) […]
# L1 4N - t e r mA F2 5N - t e r mA I 2 6N - t e r mA Y 2 9N - t e r mA C 9 82 .5 7A T10 22 .6 1A Exp . l eve l: WT (1 :5)Exp . l evel : >WT (1 :1)Exp. le vel: WT (1:2 0)Exp. le vel: WT (1:2 0)Exp. le vel: WT (1:5 0)Exp . l eve l: WT (1 :1) […]
# Exp. le vel: WT (1:1 0)Exp. le vel: WT (1:2 0) C 1 1 83 .2 5AExp. le vel: WT (1:5 0)Exp. le vel: WT (1:5 0)Exp. le vel: WT (1:2 0)Exp . l eve l: WT (1 :5) […]
# Exp. le vel: WT (1:5 0)Exp. le vel: WT (1:1 0)Exp. le vel: WT (1:5 0) E203ECL2AExp . l evel : >WT (1 :1)Exp. le vel: WT (1:5 0)Exp. le vel: WT (1:5 0) […]
# Exp . l eve l: WT (1 :1) F28Exp. le vel: WT (1:5 0) C 2 8 56 .4 7AExp. le vel: WT (1:2 0) WExp. le vel: WT (1:2 0) F28Exp. le vel: WT (1:5 0)Exp . l evel : >WT (1 :1) […]
# Exp. le vel: WT (1:5 0)Exp. le vel: WT (1:5 0) C 3 2 77 .4 8AExp . l eve l: WT (1 :5)Exp . l evel : >WT (1 :1)Exp . l evel : >WT (1 :1) […]
# Suppl eme nt ary Figure 1 | Mutational analysis of GPR103. […]
# mutants. Data are presented as mean values ± SEM, normally n=3-5; dots), each performed in triplicate. b-d Cell-surface expression (b) and QRFP26-in-duced activation of GPR103 (c, d) were analyzed by the flow cytometry and the TGFα shedding assay, respectively. From the concentration–response curves (a), Emax (c) and ΔpEC50 (d) values relative to the wild type were calculated. Colors in the mutant bars indicate an expression level matching to that of titrated wild type. Statistical analyses were performed using the ordinary one-way ANOVA followed by Dunnett tests with the expression-matched […]
substance,measurement,setting,value
TSGPLGNLAEELNGYSRKKGGFSFRF-NH2 [QRFP26],Emax,mean,99.8%
same,EC50,n = 3,234 nM
same,Emax,n = 3,103 ± 2.2%
